Results from US20140309192A1, “MODULATORS OF THE G PROTEIN-COUPLED MAS RECEPTOR AND THE TREATMENT OF DISORDERS RELATED THERETO” (ARENA PHARMACEUTICALS, INC., priority 2011, published 2014).
Where a name gives a salt, the structure may show the parent alone.

Experiment: Dynamic moisture-sorption (DMS)
Format: physicochemical
Conditions: for hygroscopicity (DMS) / total weight gain from the dried state (DMS): 25° C.; for weight gain at 90% RH and 25° C. (DMS): after a drying period
Description: A dynamic moisture-sorption (DMS) study was conducted using a dynamic moisture-sorption analyzer, VTI Corporation, SGA-100. Samples were prepared for DMS analysis by placing 5 mg to 20 mg of a sample in a tared sample holder. The sample was placed on the hang-down wire of the VTI balance. A drying step was run, typically at 40° C. and 0.5-1% RH for 1 h. The isotherm temperature is 25° C. Defined % RH holds typically ranged from 10% RH to 90% RH, with intervals of 10 to 20% RH. A % weight change smaller than 0.010% over 10 min, or up to 2 h, whichever occurred first, was required before continuing to the next % RH hold. The water content of the sample equilibrated as described above was determined at each % RH hold.

NC(=O)[C@H](CO)NCc1ccc(C(=O)Nc2ccc(Cl)cc2N2CCN(CCC(F)(F)F)CC2)c(F)c1F [Compound 170 (Example 2.5B)]
hygroscopicity (DMS): FIG. 11: This polymorph of the free base is non-hygroscopic, | weight gain at 90% RH and 25° C. (DMS): increasing ~0.1% weight at 90% RH and 25 °C

NC(=O)[C@H](CO)NCc1ccc(C(=O)Nc2ccc(Cl)cc2N2CCN(CCC(F)(F)F)CC2)c(F)c1F [Compound 170 dihydrochloride hydrate]
water picked up from 30% RH to 90% RH at 25° C. (DMS): 0.7% water from 30% RH to 90% RH at 25 °C | total weight gain from the dried state (DMS): dried state was about 2.5%. The sample picked up only about

NC(=O)[C@H](CO)NCc1ccc(C(=O)Nc2ccc(Cl)cc2N2CCN(CCC(F)(F)F)CC2)c(F)c1F [Compound 170 dihydrochloride solvate]
total weight gain from the dried state (DMS): The total weight gain from the dried state was about 2%, thus

Cl.Cl.NC(=O)[C@H](CO)NCc1ccc(C(=O)Nc2ccc(Cl)cc2N2CCN(CCC(F)(F)F)CC2)c(F)c1F [Compound 170 dihydrochloride, (S)-4-((1-amino-3-hydroxy-1-oxopropan-2-ylamino)methyl)-N-(4-chloro-2-(4-(3,3,3-trifluoropropyl)piperazin-1-yl)phenyl)-2,3-difluorobenzamide dihydrochloride]
weight gain at 90% RH and 25° C. (DMS): drying period, was about 3.4%. It was shown by PXRD of the

NC(=O)[C@H](CO)NCc1ccc(C(=O)Nc2ccc(Cl)cc2N2CCN(CCC(F)(F)F)CC2)c(F)c1F [Compound 170, (S)-4-((1-Amino-3-hydroxy-1-oxopropan-2-ylamino)methyl)-N-(4-chloro-2-(4-(3,3,3-trifluoropropyl)piperazin-1-yl)phenyl)-2,3-difluorobenzamide]
hygroscopicity (DMS): non-hygroscopic | weight gain at 90% RH and 25° C. (DMS): ~0.1%
